# Measurements as given in article PMC4153677, “Probing the Activity Modification Space of the Cysteine Peptidase Cathepsin K with Novel Allosteric Modifiers” (PLoS ONE, 2014).
# Like-named read-outs stand apart in the source and are kept apart here.
# Experiments:
# [1] = target: T1, Recombinant human cathepsin K (Homo sapiens, UniProt P43235); conditions: cited from earlier work; for stability: ln(sf), sf = ratio of half-lives in the presence and absence of modifier: 37 °C and pH 7.4, data from previous work
# T1 construct: made in house
# T1 sequence (P43235 115-329): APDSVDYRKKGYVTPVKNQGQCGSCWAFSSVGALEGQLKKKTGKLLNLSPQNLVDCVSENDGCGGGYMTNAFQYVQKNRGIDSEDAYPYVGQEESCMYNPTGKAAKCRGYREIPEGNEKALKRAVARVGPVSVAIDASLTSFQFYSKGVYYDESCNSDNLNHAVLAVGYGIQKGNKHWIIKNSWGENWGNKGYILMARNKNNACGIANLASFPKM
# [2] = target: T1, Recombinant human cathepsin K; experiment: Azocasein degradation assays; assay type: biochemical; conditions: for azocasein: fraction of residual enzyme activity: value of 1 equals the activity of unmodified enzyme, activity modification matrix
# Excerpt: Figure 4 Effect of modifiers on the degradation of macromolecular substrates. (A) Effect of increasing concentrations of compounds 1 and 2 on the degradation of calf skin collagen. Molecular mass standards are given in kDa and positions of α, β and γ chains of intact collagen are marked by arrows. (B) Effect of modifiers on azocasein degradation. (C) Effect of glycosaminoglycans and clusterin on azocasein degradation. Two different concentrations of each glycosaminoglycan were used in the experiments (10 µg/ml and 200 µg/ml). Error bars in panels B and C represent the SEM of three experiments. All experiments were performed in 100 mM sodium acetate buffer pH 5.50 containing 1 mM EDTA and 5 mM DTT, as described in detail in the Materials and Methods section. Abbreviations: CPD – compound, CS – chondroitin sulfate, DS – dermatan sulfate, HP – heparin.
# Azocasein (Sigma-Aldrich, USA) was dissolved in 100 mM sodium acetate buffer pH 5.50 containing 1 mM EDTA and 5 mM DTT at a concentration of 3 mg/ml. Samples were incubated with 0.1 µM cathepsin K for 30 min at 37°C in the presence of each compound. […] Reactions were stopped by addition of trichloroacetic acid (final concentration 5% v/v), centrifuged, clear supernatants mixed with 0.5 M NaOH and the concentrations of solubilized peptides determined by measuring the absorbance at 440 nm. All experiments were performed in triplicates and appropriate blanks were run to take into account the absorption of azocasein and compounds alone. IC 50 values were determined as described previously.
# [3] = target: T1, Recombinant human cathepsin K; conditions: cited from earlier work; for Z-FRAMC: geometric mean of residual activities (vA): at 0.1×Km and 10×Km substrate, modifier 10×KA, previously known modifiers, data from previous work
# [4] = target: T1, Recombinant human cathepsin K; parameters: key: qualitative values of 1 and 0 were used to signify inhibition and lack thereof, respectively; qualitative values of 1 and 0 were used to signify inhibition and lack thereof, respectively; a value of -1 was used to describe the concentration-dependent roles of glycosaminoglycans; conditions: activity modification matrix; previously known modifiers, data from previous work; cited from earlier work
"Effect on azocasein degradation ([2]; lowest concentration, 10 µg/ml)",azocasein: fraction of residual enzyme activity [2],"Effect on azocasein degradation ([2]; glycosaminoglycans at 10 µg/ml and 200 µg/ml, clusterin)",Substance,"stability: ln(sf), sf = ratio of half-lives in the presence and absence of modifier [1]",Z-FRAMC: geometric mean of residual activities (vA) [3],collagen: qualitative value [4],Effect on stability of cathepsin K at physiological plasma pH 7.4 [1],Effect on the hydrolysis of Z-FR↓AMC [3],Effect on the hydrolysis of Z-FR↓AMC ([3]; listed as CLU)
ineffective,0.90,–,chondroitin sulfate [reference compound],-0.24,2.40,-1,–,–,–
–,0.32,–,dermatan sulfate [reference compound],-0.15,3.18,-1,–,–,–
–,0.31,–,heparin,1.69,1.55,-1,increase the stability,–,–

Substance,"Effect on azocasein degradation ([2]; lowest concentration, 10 µg/ml)",azocasein: fraction of residual enzyme activity [2],"Effect on azocasein degradation ([2]; glycosaminoglycans at 10 µg/ml and 200 µg/ml, clusterin)","stability: ln(sf), sf = ratio of half-lives in the presence and absence of modifier [1]",Z-FRAMC: geometric mean of residual activities (vA) [3],collagen: qualitative value [4],Effect on stability of cathepsin K at physiological plasma pH 7.4 [1],Effect on the hydrolysis of Z-FR↓AMC [3],Effect on the hydrolysis of Z-FR↓AMC ([3]; listed as CLU)
"clusterin: extracellular chaperone, stabilizer and liberator of cathepsin K",–,0.95,marginal inhibitory effect,0.79,1.00,0,increase the stability,no effect on enzymatic activity,no modification
